We go through 9 compounds from publication PMC12040169 (PLOS Biology, 2025).

In brackets after ≈: the same amount, converted by molar mass.

Data set [1] concerns T1, CTL2-GFP (C. trachomatis L2/434/Bu, GFP-expressing).
T1 construct: L2/434/Bu, GFP-expressing
Kind of data set: microbe, parasite or virus in culture. The arrangement: Intracellular C. trachomatis growth in HeLa cells, bulk GFP fluorescence relative to DMSO. The note with it: Chlamydia trachomatis, HeLa, 28.5 h; bulk GFP. The protocol: (§1) MICs were calculated as described above.

Data set [2] shares this test system. Kind of data set: microbe, parasite or virus in culture. The note with it: Chlamydia trachomatis, 28.5 h; bulk GFP. Also on record: species or system HeLa; Intracellular C. trachomatis growth in HeLa cells, bulk GFP fluorescence relative to DMSO. As for the experimental part:
as §1

Data set [3] deals with T2, E. faecalis.
T2 construct: DSM 20478
Kind of data set: microbe, parasite or virus in culture. The note with it: Enterococcus faecalis; estimated IC50; read-out: E. faecalis, IC50 (µM) estimate. The arrangement: Microbial growth in liquid dilution assay, OD600 relative to DMSO control. The source says:
(§2) Compound effects on commensal microbes in dilution assay As our objective was to discover compounds that inhibit Chlamydia selectively but spare commensal bacteria, we further tested 15 of our top compounds (c1e–c10e and c1v–c5v) against five bacterial species, Escherichia coli, Lactobacillus reuteri, Enterococcus faecalis, Bacteroides thetaiotaomicron, and Bifidobacterium adolescentis, representing the four dominating phyla of the human gut microbiota. […] Exceptions were c3e and c5e, which at 30 µM were inhibitory to some species. […] Of note, c1e–c3e had little or no effect on the growth of an even larger set of species of gut bacteria, also including Blautia coccoides, Prevotella copri, Prevotella histicola, Bacteroides fragilis, and Dubosiella newyorkensis, when tested in radial diffusion assays, in which the bacteria were exposed to compounds for 24–48 h before measurements of growth inhibition zones (S10B Fig and S5G Data).

In data set [4] the test system is T3, B. adolescentis.
T3 construct: DSM 20083
As to the kind of experiment: microbe, parasite or virus in culture. Also on record: Microbial growth in liquid dilution assay, OD600 relative to DMSO control. The note with it: Bifidobacterium adolescentis; estimated IC50; read-out: B. adolescentis, IC50 (µM) estimate.
From the text: as §2

Data set [5] deals with T4, E. coli.
T4 construct: DSM 301
Kind of data set: microbe, parasite or virus in culture. The arrangement: Microbial growth in liquid dilution assay, OD600 relative to DMSO control. The note with it: Escherichia coli; estimated IC50; read-out: E. coli, IC50 (µM) estimate.
From the text: as §2

Data set [6] deals with T5, L. reuteri.
T5 construct: DSM 20016
As to the kind of experiment: microbe, parasite or virus in culture. Also on record: Microbial growth in liquid dilution assay, OD600 relative to DMSO control. The note with it: Limosilactobacillus reuteri; estimated IC50; read-out: L. reuteri, IC50 (µM) estimate.
From the text: as §2

Data set [7] concerns T6, B. thetaiotaomicron.
T6 construct: DSM 2079
As to the kind of experiment: microbe, parasite or virus in culture. Also on record: Microbial growth in liquid dilution assay, OD600 relative to DMSO control. The note with it: Bacteroides thetaiotaomicron; estimated IC50; read-out: B. thetaiotaomicron, IC50 (µM) estimate.
From the text: as §2

Data set [8] deals with T1, CTL2-GFP (C. trachomatis L2/434/Bu, GFP-expressing). Kind of data set: microbe, parasite or virus in culture. The arrangement: species or system HeLa; C. trachomatis growth in HeLa, dose-response, mean of bulk GFP fluorescence and imaged total inclusion area. The note with it: Chlamydia trachomatis, 28.5 h; mean of GFP and inclusion area. A digest of the protocol: (§3)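 GFP/resorufin bulk fluorescence read → fix → Hoechst stain → high-content imaging. Inclusion total area + count = growth proxy; nuclei count = host viability proxy. MIC calc per earlier method.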

For data set [9] the test system is unchanged. Kind of data set: microbe, parasite or virus in culture. The note with it: Chlamydia trachomatis, HeLa, 28.5 h; mean of GFP and inclusion area. Also on record: C. trachomatis growth in HeLa, dose-response, mean of bulk GFP fluorescence and imaged total inclusion area. In a few lines:
as §3

A short description of data set [10]: in vitro. The note with it: human, hela cells; bulk resorufin, mean of 3. The arrangement: Viability of infected HeLa host cells, resazurin conversion, bulk resorufin fluorescence relative to DMSO.

As a reminder, the IC50 is the concentration at which inhibition is half-maximal. A word on the viability: it is a read-out of living cells in per cent, often relative to untreated cells.

Turning to `Cc1cc(NS(=O)(=O)c2ccc(NC(=O)COc3ccc(Cl)c(C)c3)cc2)no1` [c3v], the IC50 in data set [1] was 0.773 µM; in [3], greater than 30 µM; in data set [4], greater than 30 µM; in data set [5] it was greater than 30 µM; in [6], greater than 30 µM; in data set [7] it was greater than 30 µM. In addition, in data set [2], the MIC amounted to 0.829 µM (≈ 0.361 µg/mL).
For `Cc1ccc(C(=O)/C=C/Nc2ccc(S(=O)(=O)Nc3onc(C)c3C)cc2)cc1` [c4v], the IC50 in [1] is 1.32 µM; in [3], greater than 30 µM; in data set [4], greater than 30 µM; in data set [5] it was greater than 30 µM; in data set [6], greater than 30 µM; in data set [7], greater than 30 µM. Besides, in data set [2], the MIC was 1.88 µM (≈ 0.775 µg/mL).
On to `COc1c(Br)cc2c(cc(C)n2-c2ccccc2)c1OCC(O)CNC(C)C` (stereo not shown) [c5e], for which the MIC in data set [8] amounted to 0.767 µM (≈ 0.343 µg/mL). In addition, half-maximal inhibition in data set [9] (IC50) required 0.375 µM. In data set [3], the IC50 is greater than 30 µM. Also, the IC50 in data set [4] was 10.3 µM. Moreover, the half-maximal inhibitory concentration (IC50) in [5] was greater than 30 µM. The IC50 in data set [6] was greater than 30 µM. For the same compound, the IC50 in data set [7] is greater than 30 µM. For the same compound, in data set [10], the viability at 28.5 h, 0.000416667 µM came out at 87.7%; the viability at 28.5 h, 0.00125 µM amounted to 89.3%; the viability at 28.5 h, 0.00375 µM amounted to 86.3%; the viability at 28.5 h, 0.0123333 µM turned out to be 90.9%. Besides, in data set [10], the viability at 28.5 h, 0.037 µM stood at 88.9%; the viability at 28.5 h, 0.111 µM was found to be 91.6%; the viability at 28.5 h, 0.333 µM was 87.6%; the viability at 28.5 h, 1 µM turned out to be 92.4%. In data set [10], the viability at 28.5 h, 3 µM was 89.5%; the viability at 28.5 h, 10 µM was 97%; the viability at 28.5 h, 30 µM turned out to be 0%.
As to `CCc1nnc(NS(=O)(=O)c2ccc(NC(=O)COc3ccc4ccccc4c3)cc2)s1` [c5v], the IC50 in data set [1] was 1.43 µM; in data set [3], greater than 30 µM; in [4], greater than 30 µM; in data set [5], greater than 30 µM; in [6], greater than 30 µM; in data set [7], greater than 30 µM. The same compound returned an MIC in data set [2] of 2.24 µM (≈ 1.05 µg/mL).
Turning to `CNC(=S)N1CCN(c2nsc3ccccc23)CC1` [c6e], the MIC in data set [8] amounted to 0.771 µM (≈ 0.225 µg/mL). Further, in [9], the IC50 was found to be 0.413 µM. Further, the IC50 in [3] is greater than 30 µM. Besides, the IC50 in [4] is greater than 30 µM. Moreover, in data set [5], the half-maximal inhibitory concentration (IC50) was greater than 30 µM. Further, the IC50 in data set [6] was greater than 30 µM. Besides, the IC50 in data set [7] is greater than 30 µM. Besides, in data set [10], the viability at 28.5 h, 0.000416667 µM worked out at 103%; the viability at 28.5 h, 0.00125 µM came out at 100%; the viability at 28.5 h, 0.00375 µM is 99.1%; the viability at 28.5 h, 0.0123333 µM amounted to 101%. Besides, in [10], the viability at 28.5 h, 0.037 µM was 97.3%; the viability at 28.5 h, 0.111 µM was 105%; the viability at 28.5 h, 0.333 µM was 101%; the viability at 28.5 h, 1 µM worked out at 108%. For the same compound, in [10], the viability at 28.5 h, 3 µM is 103%; the viability at 28.5 h, 10 µM is 102%; the viability at 28.5 h, 30 µM was 76%.
Take `N#Cc1c(Nc2cccc(C(F)(F)F)c2)sc(C(=O)c2ccc3c(c2)OCO3)c1N` [c8e]: the MIC in data set [8] came to 0.936 µM (≈ 0.404 µg/mL). Besides, the IC50 in [9] is 0.567 µM. In data set [3], the IC50 is greater than 30 µM. In addition, in [4], the IC50 was greater than 30 µM. In addition, in data set [5], the IC50 was greater than 30 µM. In addition, the half-inhibitory concentration (IC50) in [6] was greater than 30 µM. In addition, in [7], the concentration for half-maximal inhibition (IC50) is greater than 30 µM. Also, in data set [10], the viability at 28.5 h, 0.000416667 µM is 88%; the viability at 28.5 h, 0.00125 µM amounted to 94.7%; the viability at 28.5 h, 0.00375 µM came to 88.4%; the viability at 28.5 h, 0.0123333 µM was 85.7%. Moreover, in [10], the viability at 28.5 h, 0.037 µM was found to be 86%; the viability at 28.5 h, 0.111 µM was 87.3%; the viability at 28.5 h, 0.333 µM is 85.7%; the viability at 28.5 h, 1 µM turned out to be 94.3%. Also, in data set [10], the viability at 28.5 h, 3 µM is 81.6%; the viability at 28.5 h, 10 µM turned out to be 77.1%; the viability at 28.5 h, 30 µM is 62.5%.
`O=C(Nc1ccc(F)c(F)c1)NC1CCC2CN(CCOc3ccccc3)CC2C1` (stereo not shown) [c9e]: the MIC in data set [8] is 2.63 µM (≈ 1.09 µg/mL). In data set [9], this compound had an IC50 of 0.641 µM. For the same compound, the IC50 in data set [3] was greater than 30 µM. Further, the half-maximal inhibitory concentration (IC50) in data set [4] is greater than 30 µM. Moreover, the concentration for half-maximal inhibition (IC50) in data set [5] is greater than 30 µM. In addition, in data set [6], the IC50 was greater than 30 µM. Further, the IC50 in [7] was greater than 30 µM. In addition, in [10], the viability at 28.5 h, 0.000416667 µM was 90.2%; the viability at 28.5 h, 0.00125 µM is 92.6%; the viability at 28.5 h, 0.00375 µM came out at 90.8%; the viability at 28.5 h, 0.0123333 µM turned out to be 91.5%. Moreover, in data set [10], the viability at 28.5 h, 0.037 µM was found to be 89%; the viability at 28.5 h, 0.111 µM is 92%; the viability at 28.5 h, 0.333 µM stood at 91.6%; the viability at 28.5 h, 1 µM was determined as 94.6%. Besides, in data set [10], the viability at 28.5 h, 3 µM turned out to be 92.9%; the viability at 28.5 h, 10 µM stood at 95.3%; the viability at 28.5 h, 30 µM came out at 102%.
As to `O=C(N/N=C/c1ccc(Sc2cccc3cccnc23)o1)c1cccc(F)c1` [c10e], the MIC in [8] was found to be 5.57 µM (≈ 2.18 µg/mL). This compound showed an IC50 in [9] of 0.828 µM. In addition, in data set [3], the IC50 was greater than 30 µM. Besides, in data set [4], the IC50 is greater than 30 µM. Besides, the IC50 in data set [5] is greater than 30 µM. Moreover, in data set [6], the IC50 is greater than 30 µM. For the same compound, the IC50 in data set [7] is greater than 30 µM. Further, in [10], the viability at 28.5 h, 0.000416667 µM is 84.5%; the viability at 28.5 h, 0.00125 µM is 93.8%; the viability at 28.5 h, 0.00375 µM came out at 84.5%; the viability at 28.5 h, 0.0123333 µM is 91.6%. For the same compound, in data set [10], the viability at 28.5 h, 0.037 µM was 82.9%; the viability at 28.5 h, 0.111 µM came out at 92.9%; the viability at 28.5 h, 0.333 µM is 88%; the viability at 28.5 h, 1 µM amounted to 94.1%. In addition, in [10], the viability at 28.5 h, 3 µM turned out to be 89.3%; the viability at 28.5 h, 10 µM came to 89.9%; the viability at 28.5 h, 30 µM was found to be 81.1%.
On to `Cn1cc(C(c2ccc(OCC(=O)O)cc2)c2cn(C)c3ccccc23)c2ccccc21` [c48e], for which, in data set [8], the MIC came out at 8.4 µM (≈ 3.56 µg/mL). Further, in data set [9], inhibition was half-maximal at 6.69 µM (IC50). In [10], the viability at 28.5 h, 0.000416667 µM is 87.9%; the viability at 28.5 h, 0.00125 µM amounted to 89.6%; the viability at 28.5 h, 0.00375 µM came to 87.2%; the viability at 28.5 h, 0.0123333 µM came out at 88.7%. Also, in data set [10], the viability at 28.5 h, 0.037 µM was found to be 88.5%; the viability at 28.5 h, 0.111 µM worked out at 89.5%; the viability at 28.5 h, 0.333 µM is 89.6%; the viability at 28.5 h, 1 µM was determined as 93.9%. In addition, in [10], the viability at 28.5 h, 3 µM came to 93.8%; the viability at 28.5 h, 10 µM is 97.6%; the viability at 28.5 h, 30 µM worked out at 87.9%.
